Assay results from US20070167447A1, “Indole acetamides as inhibitors of the hepatitis c virus ns5b polymerase” (priority 2003, published 2007).
Where a name gives a salt, the structure may show the parent alone.

Legend:
[1] = target: T1, HCV RNA dependent RNA polymerase (NS5B) (Hepatitis C virus genotype 1b, UniProt P26663); assay: In-vitro HCV NS5B enzyme inhibition assay; type: biochemical; conditions: NS5B enzyme 5 nM, 1 h at 22° C.
T1 construct: made in house; host or cells: insect cells infected with recombinant baculovirus (as described for the cited WO 96/37619)
T1 sequence (P26663 2420-3010): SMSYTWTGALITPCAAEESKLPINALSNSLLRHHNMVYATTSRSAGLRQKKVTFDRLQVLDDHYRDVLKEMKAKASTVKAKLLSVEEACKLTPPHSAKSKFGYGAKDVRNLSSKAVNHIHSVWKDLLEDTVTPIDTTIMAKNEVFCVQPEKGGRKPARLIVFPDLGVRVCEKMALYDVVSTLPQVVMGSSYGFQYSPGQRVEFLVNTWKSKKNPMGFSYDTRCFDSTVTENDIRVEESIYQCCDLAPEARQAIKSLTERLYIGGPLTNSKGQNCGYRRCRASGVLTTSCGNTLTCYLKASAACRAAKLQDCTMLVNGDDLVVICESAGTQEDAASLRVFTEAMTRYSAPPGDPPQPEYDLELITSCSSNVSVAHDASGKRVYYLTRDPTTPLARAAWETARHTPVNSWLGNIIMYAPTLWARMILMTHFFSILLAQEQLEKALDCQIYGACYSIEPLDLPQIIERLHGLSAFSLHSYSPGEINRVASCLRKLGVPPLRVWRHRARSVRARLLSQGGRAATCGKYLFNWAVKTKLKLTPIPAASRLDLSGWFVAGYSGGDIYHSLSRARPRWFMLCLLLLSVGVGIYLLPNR
From the text: i) In-vitro HCV NS5B Enzyme Inhibition Assay
WO 96/37619 describes the production of recombinant HCV RdRp from insect cells infected with recombinant baculovirus encoding the enzyme. […] The reference describes a polymerisation assay using poly(A) and oligo(U) as a primer or an heteropolymeric template. Incorporation of tritiated UTP or NTPs is quantified by measuring acid-insoluble radioactivity. The present inventors have employed this assay to screen the various compounds described above as inhibitors of HCV RdRp.
(§1) Incorporation of radioactive UMP was measured as follows. The standard reaction (50 μl) was carried out in a buffer containing 20 mM tris/HCl pH 7.5, 5 mM MgCl2, 1 mM DTT, 50 mM NaCl, 0.03% N-octylglucoside, 1 μCi [^3H]-UTP (40 Ci/mmol, NEN), 10 μM UTP and 10 μg/ml poly(A) or 5 μM NTPs and 5 μg/ml heteropolymeric template. Oligo(U)12 (1 μg/ml, Genset) was added as a primer in the assay working on Poly(A) template. The final NS5B enzyme concentration was 5 nM. The order of assembly was: 1) compound, 2) enzyme, 3) template/primer, 4) NTP. After 1 h incubation at 22° C. the reaction was stopped by adding 50 μl of 20% TCA and applying samples to DE81 filters. The filters were washed thoroughly with 5% TCA containing 1M Na2HPO4/NaH2PO4, pH 7.0, rinsed with water and then ethanol, air dried, and the filter-bound radioactivity was measured in the scintillation counter. […]

[2] = tested on: subgenomic HCV replicon in Huh-7 cells; assay: Cell based HCV sub-genomic replication assay (NS3 Cell-ELISA); conditions: Hepatitis C virus; Huh-7 replicon cells, 96 hours, NS3 expression
Protocol: as §1
Cell clones that stably maintain subgenomic HCV replicon were obtained by transfecting Huh-7 cells with an RNA replicon identical to I377neo/NS3-3′/wt described by Lohmann et al. (1999) (EMBL-genbank No. AJ242652), followed by selection with neomycin sulfate (G418). […] Each condition was tested in duplicate and average absorbance values were used for calculations. […] After washing again as above, the reaction was developed with p-Nitrophenyl phosphate disodium substrate (Sigma) and the absorbance at 405/620 nm read at intervals. […]

For `CN(CC1CCCCN1C)C(=O)Cn1c(-c2ccccc2)c(C2CCCCC2)c2ccc(C(=O)O)cc21` (centres unmarked) [Example 15, 3-cyclohexyl-1-(2-{methyl[(1-methylpiperidin-2-yl)methyl]amino}-2-oxoethyl)-2-phenyl-1H-indole-6-carboxylic acid trifluoroacetate], the IC50 [1] was 14 nM and the EC50 [2] was 270 nM.
